From patent publication US10208037B2, “Toll-like receptor-7 and -8 modulatory 1H imidazoquinoline derived compounds” (The University of Kansas, priority 2011, dated 2019)

Assays:
Format in all cases: cell-based
[1] = biological target: T1, TLR7 (Homo sapiens, UniProt Q9NYK1); experiment: Schild plot analysis of inhibition of TLR7-induced activation
T1 construct: expressed in transfected cells; host or cells: HEK293 (HEK-Blue-7 cells)
T1 sequence (Q9NYK1 27-1049): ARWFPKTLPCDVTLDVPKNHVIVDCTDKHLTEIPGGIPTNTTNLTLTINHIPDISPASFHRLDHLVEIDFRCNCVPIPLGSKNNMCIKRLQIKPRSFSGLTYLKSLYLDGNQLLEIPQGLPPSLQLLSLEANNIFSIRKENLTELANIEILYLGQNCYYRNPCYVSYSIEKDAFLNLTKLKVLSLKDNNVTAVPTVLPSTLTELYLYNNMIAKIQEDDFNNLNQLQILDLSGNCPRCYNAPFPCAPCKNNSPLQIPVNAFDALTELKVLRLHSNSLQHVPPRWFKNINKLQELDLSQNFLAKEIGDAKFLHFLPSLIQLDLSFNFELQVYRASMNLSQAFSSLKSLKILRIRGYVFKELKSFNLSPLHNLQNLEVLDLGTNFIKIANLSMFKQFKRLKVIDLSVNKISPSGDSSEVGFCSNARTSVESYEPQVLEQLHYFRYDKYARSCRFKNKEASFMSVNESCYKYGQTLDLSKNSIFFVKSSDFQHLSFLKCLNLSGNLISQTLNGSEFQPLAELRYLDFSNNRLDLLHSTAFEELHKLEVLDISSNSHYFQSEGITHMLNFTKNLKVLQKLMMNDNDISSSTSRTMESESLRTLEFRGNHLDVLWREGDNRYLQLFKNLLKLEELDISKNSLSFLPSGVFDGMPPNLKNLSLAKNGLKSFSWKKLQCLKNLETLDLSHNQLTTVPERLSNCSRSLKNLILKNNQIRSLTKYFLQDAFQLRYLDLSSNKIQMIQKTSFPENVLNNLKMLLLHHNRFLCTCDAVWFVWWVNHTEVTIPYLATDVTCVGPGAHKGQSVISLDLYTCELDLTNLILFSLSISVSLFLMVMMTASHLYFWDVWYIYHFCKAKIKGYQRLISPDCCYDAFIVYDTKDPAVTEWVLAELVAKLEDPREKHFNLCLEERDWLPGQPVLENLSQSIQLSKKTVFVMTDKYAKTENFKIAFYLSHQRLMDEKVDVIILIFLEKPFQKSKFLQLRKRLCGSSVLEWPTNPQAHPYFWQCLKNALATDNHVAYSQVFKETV
Method: (§1) Experiments were performed in checker-board format, using a liquid handler, in 384-well plates which permitted the concentrations of both agonist and antagonist to be varied simultaneously along the two axes of the plate. Either imidazoquinoline (TLR7-specific agonist) or CL075 (TLR8-specific agonist) was used at a starting concentration of 20 μg/mL, and were two-fold diluted serially (along the rows). Next, 47a or chloroquine was two-fold diluted serially in HEK detection medium (along columns). Reporter cells were then added, incubated, and NF-κB activation measured as described in the text. A and A′ (Y-axis) are defined respectively as the EC50 value in the absence of antagonist, and the EC50 values in the presence of varying concentrations of antagonist.

[2] = system: TLR7 and TLR8-induced cytokine and chemokine release; experiment: Inhibition of TLR7- and TLR8-mediated cytokine and chemokine production in human PBMCs; settings: hPBMCs
Method: FIGS. 22A-[…] illustrate inhibition of TLR7-mediated (FIGS. 22A-22D) and TLR8-mediated (FIGS. 22E-[…]) proinflammatory cytokine production in human peripheral blood mononuclear cells by chloroquine or 47a. Proinflammatory cytokines were assayed by cytokine bead array methods after incubation of hPBMCs with graded concentrations of the test compound for 12 h in the presence of 10 μg/ml of either CL075 (TLR8 agonist) or gardiquimod (TLR7 agonist). FIGS. 23A-23D illustrate inhibition of TLR7-mediated (FIGS. 23A-23B) and TLR8-mediated (FIGS. 23C-3D) chemokine production in human peripheral blood mononuclear cells by chloroquine or 47a. Chemokines were assayed by cytokine bead array methods after incubation of hPBMCs with graded concentrations of the test compound for 12 h in the presence of 10 μg/ml of either CL075 (TLR8 agonist) or gardiquimod (TLR7 agonist). Aliquots (10^6 cells in 100 μL) of hPBMCs isolated from blood obtained from healthy human donors after informed consent by conventional Ficoll-Hypaque gradient centrifugation were stimulated for 12 h with graded concentrations of test compounds. The supernatant was isolated by centrifugation, diluted 1:20, and cytokines and chemokines were assayed in triplicate using analyte-specific cytokine/chemokine bead array assays as reported by us previously.^74

[3] = biological target: T1, TLR7; experiment: TLR7 reporter gene assay, antagonism (gardiquimod as agonist)
From the text: (§2) The induction of NF-κB was quantified using HEK-Blue-3, HEK-Blue-7 and HEK-Blue-8 cells as previously described by us.^8,24,51 HEK293 cells were stably transfected with human TLR3 (or human TLR7 or human TLR8), MD2, and secreted alkaline phosphatase (sAP), and were maintained in HEK-Blue™ Selection medium containing zeocin and normocin. Stable expression of secreted alkaline phosphatase (sAP) under control of NF-κB/AP-1 promoters is inducible by the TLR3 (or TLR7 or TLR8) agonists, and extracellular sAP in the supernatant is proportional to NF-κB induction. HEK-Blue cells were incubated at a density of ˜10^5 cells/ml in a volume of 80 μl/well, in 384-well, flat-bottomed, cell culture-treated microtiter plates until confluency was achieved, and subsequently graded concentrations of stimuli. sAP was assayed spectrophotometrically using an alkaline phosphatase-specific chromogen (present in HEK-detection medium as supplied by the vendor) at 620 nm.
(§3) Antagonism assays were done as described by us earlier^73 using the following agonists at a constant concentration: TLR3 Poly(I:C) (10 ng/mL); TLR7: gardiquimod (1 μg/mL); TLR8: CL075 (1 μg/mL) mixed with graded concentrations of the test compounds.

[4] = biological target: T2, TLR8 (Homo sapiens, UniProt Q9NR97); experiment: Schild plot analysis of inhibition of TLR8-induced activation
T2 construct: expressed in transfected cells; host or cells: HEK293 (HEK-Blue-8 cells)
T2 sequence (Q9NR97 27-1041): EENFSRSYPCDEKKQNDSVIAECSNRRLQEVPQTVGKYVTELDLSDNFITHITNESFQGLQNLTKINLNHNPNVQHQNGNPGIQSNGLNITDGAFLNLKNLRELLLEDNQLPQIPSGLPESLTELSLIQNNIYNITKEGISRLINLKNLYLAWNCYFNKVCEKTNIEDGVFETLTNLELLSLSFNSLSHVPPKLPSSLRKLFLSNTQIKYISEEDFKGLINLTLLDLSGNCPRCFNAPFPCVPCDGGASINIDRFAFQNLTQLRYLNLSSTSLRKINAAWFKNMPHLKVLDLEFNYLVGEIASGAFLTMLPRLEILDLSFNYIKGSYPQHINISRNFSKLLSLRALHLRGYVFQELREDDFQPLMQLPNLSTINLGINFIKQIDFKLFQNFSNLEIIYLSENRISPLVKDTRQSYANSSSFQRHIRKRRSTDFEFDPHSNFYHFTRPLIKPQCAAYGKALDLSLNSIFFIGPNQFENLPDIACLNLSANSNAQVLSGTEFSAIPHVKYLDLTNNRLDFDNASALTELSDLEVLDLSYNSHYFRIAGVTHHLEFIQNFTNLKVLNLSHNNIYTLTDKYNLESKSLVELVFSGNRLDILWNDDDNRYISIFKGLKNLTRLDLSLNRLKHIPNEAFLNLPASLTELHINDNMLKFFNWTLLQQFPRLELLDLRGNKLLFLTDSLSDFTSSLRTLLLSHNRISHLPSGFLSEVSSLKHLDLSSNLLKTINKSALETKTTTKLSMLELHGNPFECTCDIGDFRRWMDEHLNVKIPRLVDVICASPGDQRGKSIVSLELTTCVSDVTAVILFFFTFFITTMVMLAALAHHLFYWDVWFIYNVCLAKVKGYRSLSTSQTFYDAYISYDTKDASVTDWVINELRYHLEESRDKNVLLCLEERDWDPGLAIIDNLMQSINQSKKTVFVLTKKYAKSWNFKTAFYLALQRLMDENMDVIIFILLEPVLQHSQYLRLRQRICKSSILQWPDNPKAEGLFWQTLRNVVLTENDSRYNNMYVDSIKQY
Method: as §1

[5] = biological target: T2, TLR8; experiment: TLR8 reporter gene assay, antagonism (CL075 as agonist)
From the text: as §2, §3

[6] = system: human peripheral blood mononuclear cells; experiment: IFN-α induction in human PBMCs (ELISA); settings: hPBMC, 12 h
Method: FIG. 21 is a graph illustrating IFN-α induction by select dimers in human peripheral blood mononuclear cells. IFN-α was assayed by analyte specific ELISA after incubation of hPBMCs with graded concentrations of the test compound for 12 h.
Aliquots (10^6 cells in 100 μL) of hPBMCs isolated from blood obtained from healthy human donors after informed consent by conventional Ficoll-Hypaque gradient centrifugation were stimulated for 12 h with graded concentrations of test compounds. The supernatant was isolated by centrifugation, diluted 1:20, and IFN-α was assayed in triplicate using a high-sensitivity human IFN-α-specific ELISA kit (PBL Interferon Source, Piscataway, N.J.).

[7] = biological target: T2, TLR8; experiment: TLR8 reporter gene assay (NF-κB induction, HEK-Blue-8 cells), agonism
From the text: NF-κB induction: The induction of NF-κB was quantified using HEK-Blue-7 cells and HEK-Blue-8 cells as previously described by us.^8,24 HEK293 cells were stably transfected with human TLR7 (or human TLR8), MD2, and secreted alkaline phosphatase (sAP), and were maintained in HEK-Blue™ Selection medium containing zeocin and normocin. Stable expression of secreted alkaline phosphatase (sAP) under control of NF-κB/AP-1 promoters is inducible by the TLR7 (or TLR8) agonists, and extracellular sAP in the supernatant is proportional to NF-κB induction. HEK-Blue cells were incubated at a density of […] in a volume of 80 μL/well, in 384-well, flat-bottomed, cell culture-treated microtiter plates until confluency was achieved, and subsequently graded concentrations of stimuli. sAP was assayed spectrophotometrically using an alkaline phosphatase-specific chromogen (present in HEK-detection medium as supplied by the vendor) at 620 nm.
as §2

[8] = biological target: T1, TLR7; experiment: TLR7 reporter gene assay (NF-κB induction, HEK-Blue-7 cells), agonism; settings: Table 1; ND = not detected; read-out: TLR7 Agonism
How it was run: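 HEK293 cells stably transfected with human TLR7 or TLR8, MD2 and NF-κB/AP-1-driven secreted alkaline phosphatase, grown to confluency, then exposed to graded compound concentrations. Secreted alkaline phosphatase in supernatant measured with chromogen at 620 nm as NF-κB induction.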

Row | SMILES | Schild plot slope, TLR7 inhibition [1] | IC50 ([2]; Homo sapiens, PBMC, 12 h, 10 μg/ml CL075 or gardiquimod) [µM] | Inhibition of TNF-α and IL-1β production (in words) [2] | TLR7 antagonistic activity (in words) [3] | IC50 ([3]; agonist gardiquimod 1 μg/mL, ND = not detected) [µM] | Schild plot slope, TLR8 inhibition [4] | TLR8 antagonistic activity (in words) [5] | IC50 ([5]; agonist CL075 1 μg/mL, ND = not detected) [µM] | IFN-α induction (in words) [6] | TLR8-agonistic activity (in words) [7] | EC50 ([7]; Table 1, ND = not detected) [µM] | EC50 [8] [µM]
1 | Nc1nc2ccccc2c2c1nc(CCCc1nc3c(N)nc4ccccc4c3n1Cc1ccccc1)n2Cc1ccccc1 [Compound 47a, 2,2′-(propane-1,3-diyl)bis(1-benzyl-1H-imidazo[4,5-c]quinolin-4-amine)] | 1.12 | 0.05 to 0.3 | potently inhibits | potent antagonistic activity | 3.1 | 0.51 | potent antagonistic activity | 3.2 | – | – | – | –
2 | CCCCc1nc2c(N)nc3ccccc3c2n1Cc1ccc(CNC(=O)CCCCCCCCCCC(=O)NCc2ccc(Cn3c(CCCC)nc4c(N)nc5ccccc5c43)cc2)cc1 [Compound 52c, N^1,N^12-bis(4-((4-amino-2-butyl-1H-imidazo[4,5-c]quinolin-1-yl)methyl)benzyl)dodecane Diamide] | – | – | – | – | – | – | – | – | most potent | displayed both TLR7 and TLR8 agonism | 4.78 | 0.17
